Results taken from PMC10141516 (Pharmaceutics, 2023).

Experiments:
[1] = oral; cited from earlier work
[2] = Stability study of the APIs in pH buffers (total impurity by HPLC); format: physicochemical
Experimental: The column used was the Gemini C18 column (5.0 μm, 250 mm). Mobile phase A of the impurity study was prepared with KH2PO4 buffer (v/v, solution adjusted to pH 6.0 with 1 M KOH): acetonitrile: methanol = 85: 10: 5 (v/v/v), and mobile phase B was prepared with 90% acetonitrile. The mobile phase was filtered through a 0.4 μm polypropylene membrane filter and degassed via sonication. The diluted solution was prepared with KH2PO4 buffer (v/v, solution adjusted to pH 6.0 with 1 M KOH) and acetonitrile at a ratio of 7:3 (v/v). The wavelength, flow rate, and injection volume were set to 220 nm, 1.0 mL/min, and 20 μL, respectively. The column and sample thermostats were set to 35 °C and 5 °C, respectively. In the case of the impurity study, the analysis was performed by changing the composition of the mobile phase for 80 min using a gradient elution method for 80 min.
[…] […] We performed a calibration test, and the sample was diluted with a diluted solution and prepared at a concentration of 0.05–1 mg/mL.

[3] = Equilibrium solubility test (HPLC); settings: for solubility thermodynamic at 12 h / solubility thermodynamic at 24 h: thermodynamic from solid
Experimental: The column used was an Agilent C18 column (5.0 μm, 4.6 × 150 mm). The mobile phase and diluted solution of the content and dissolution studies analyses were prepared with 0.5% triethylamine buffer (v/v, pH 6.8 adjusted with 85% phosphoric acid) and acetonitrile at a ratio of 7:3 (v/v). The mobile phase was filtered through a 0.45-μm polypropylene membrane filter and degassed via sonication. The wavelength, flow rate, and injection volume were set to 205 nm, 1.5 mL/min, and 20 μL, respectively. In the case of the content and dissolution studies, the mobile phase was constantly flowed for 18 min via an isocratic elution method and analyzed.
The equilibrium solubility test was used to calculate the input amount through the apparent solubility test result, and an excess of the API was placed in each beaker and stirred at 400 rpm. At 0, 12, and 24 h immediately after the overdose, 2 mL samples were taken and filtered through a 0.45-μm regenerated cellulose syringe filter. The supernatant of the filtered solution was taken and diluted with a content analysis diluted solution. […] A calibration test was performed, and the sample was diluted with a diluted solution and prepared at a concentration of 0.05–1 mg/mL.

[4] = Compatibility study API-excipient / API-API (total impurities by HPLC); format: physicochemical
Experimental: The column used was the Gemini C18 column (5.0 μm, 250 mm). […] The mobile phase was filtered through a 0.4 μm polypropylene membrane filter and degassed via sonication. […] The column and sample thermostats were set to 35 °C and 5 °C, respectively. […] The compatibility study was performed using appearance and impurity tests to confirm the interaction between each API and the excipient. Each API was mixed with mannitol, microcrystalline cellulose, lactose, silicified microcrystalline cellulose, calcium hydrogen phosphate anhydrous, pregelatinized starch, sodium starch glycolate, crospovidone, sodium croscarmellose, magnesium stearate, colloidal silicon dioxide, sodium stearyl fumarate, hydroxypropyl cellulose, calcium hydroxide, citric acid, and OPADRY II pink in a 1:1 (w/w) ratio and put into each clear glass vial.

[5] = cited from earlier work
[6] = buffer solution, pH 3, aqueous buffer
[7] = buffer solution, pH 4, aqueous buffer
[8] = buffer solution, pH 5, aqueous buffer
[9] = buffer solution, pH 6, aqueous buffer
[10] = buffer solution, pH 6.8, aqueous buffer
[11] = buffer solution, pH 7, aqueous buffer
[12] = buffer solution, pH 8, aqueous buffer
[13] = buffer solution, pH 9, aqueous buffer
[14] = buffer solution, pH 10, aqueous buffer
[15] = pH 1.2 buffer solution, pH 1.2, aqueous buffer
[16] = pH 2.0 buffer solution, pH 2, aqueous buffer
[17] = pH 12.0 buffer solution, pH 12, aqueous buffer

CCOc1ccc(Cc2cc([C@@H]3O[C@H](CO)[C@@H](O)[C@H](O)[C@H]3O)ccc2Cl)cc1 [Dapagliflozin, (1S)-1,5-Anhydro-1-C-[4-chloro-3-[(4-ethoxyphenyl)methyl]phenyl]-D-glucitol (S)-propane-1,2-diol (1:1) monohydrate]
Tmax [1]: 2 h
Total Impurity ([2]; pH 1.2 buffer, 20 ± 2 °C/60 ± 5% RH, 3 Days): 0.08%
Total Impurity ([2]; pH 1.2 buffer, 20 ± 2 °C/60 ± 5% RH, 7 Days): 0.12%
Total Impurity ([2]; pH 1.2 buffer, 40 ± 2 °C/75 ± 5% RH, 3 Days): 0.11%
Total Impurity ([2]; pH 1.2 buffer, 40 ± 2 °C/75 ± 5% RH, 7 Days): 0.73%
Total Impurity ([2]; pH 1.2 buffer, Initial): 0.06%
Total Impurity ([2]; pH 2.0 buffer, 20 ± 2 °C/60 ± 5% RH, 3 Days): 0.00%
Total Impurity ([2]; pH 2.0 buffer, 20 ± 2 °C/60 ± 5% RH, 7 Days): 0.00%
Total Impurity ([2]; pH 2.0 buffer, 40 ± 2 °C/75 ± 5% RH, 3 Days): 0.02%
Total Impurity ([2]; pH 2.0 buffer, 40 ± 2 °C/75 ± 5% RH, 7 Days): 1.03%
Total Impurity ([2]; pH 2.0 buffer, Initial): 0.00%
Total Impurity ([2]; pH 3.0 buffer, 20 ± 2 °C/60 ± 5% RH, 3 Days): 1.30%
Total Impurity ([2]; pH 3.0 buffer, 20 ± 2 °C/60 ± 5% RH, 7 Days): 1.99%
Total Impurity ([2]; pH 3.0 buffer, 40 ± 2 °C/75 ± 5% RH, 3 Days): 7.29%
Total Impurity ([2]; pH 3.0 buffer, 40 ± 2 °C/75 ± 5% RH, 7 Days): 14.76%
Total Impurity ([2]; pH 3.0 buffer, Initial): 0.06%
Total Impurity ([2]; pH 4.0 buffer, 20 ± 2 °C/60 ± 5% RH, 3 Days): 0.00%
Total Impurity ([2]; pH 4.0 buffer, 20 ± 2 °C/60 ± 5% RH, 7 Days): 0.01%
Total Impurity ([2]; pH 4.0 buffer, 40 ± 2 °C/75 ± 5% RH, 3 Days): 0.04%
Total Impurity ([2]; pH 4.0 buffer, 40 ± 2 °C/75 ± 5% RH, 7 Days): 0.12%
Total Impurity ([2]; pH 4.0 buffer, Initial): 0.00%
Total Impurity ([2]; pH 5.0 buffer, 20 ± 2 °C/60 ± 5% RH, 3 Days): 0.16%
Total Impurity ([2]; pH 5.0 buffer, 20 ± 2 °C/60 ± 5% RH, 7 Days): 0.26%
Total Impurity ([2]; pH 5.0 buffer, 40 ± 2 °C/75 ± 5% RH, 7 Days): 4.48%
Total Impurity ([2]; pH 5.0 buffer, Initial): 0.00%
Total Impurity ([2]; pH 6.0 buffer, 20 ± 2 °C/60 ± 5% RH, 3 Days): 0.00%
Total Impurity ([2]; pH 6.0 buffer, 20 ± 2 °C/60 ± 5% RH, 7 Days): 0.04%
Total Impurity ([2]; pH 6.0 buffer, 40 ± 2 °C/75 ± 5% RH, 3 Days): 0.15%
Total Impurity ([2]; pH 6.0 buffer, 40 ± 2 °C/75 ± 5% RH, 7 Days): 0.28%
Total Impurity ([2]; pH 6.0 buffer, Initial): 0.00%
Total Impurity ([2]; pH 6.8 buffer, 20 ± 2 °C/60 ± 5% RH, 3 Days): 0.01%
Total Impurity ([2]; pH 6.8 buffer, 20 ± 2 °C/60 ± 5% RH, 7 Days): 0.01%
Total Impurity ([2]; pH 6.8 buffer, 40 ± 2 °C/75 ± 5% RH, 3 Days): 0.00%
Total Impurity ([2]; pH 6.8 buffer, 40 ± 2 °C/75 ± 5% RH, 7 Days): 0.12%
Total Impurity ([2]; pH 6.8 buffer, Initial): 0.00%
Total Impurity ([2]; pH 7.0 buffer, 20 ± 2 °C/60 ± 5% RH, 3 Days): 0.02%
Total Impurity ([2]; pH 7.0 buffer, 20 ± 2 °C/60 ± 5% RH, 7 Days): 0.04%
Total Impurity ([2]; pH 7.0 buffer, 40 ± 2 °C/75 ± 5% RH, 3 Days): 0.7%
Total Impurity ([2]; pH 7.0 buffer, 40 ± 2 °C/75 ± 5% RH, 7 Days): 0.69%
Total Impurity ([2]; pH 7.0 buffer, Initial): 0.00%
Total Impurity ([2]; pH 8.0 buffer, 20 ± 2 °C/60 ± 5% RH, 3 Days): 0.03%
Total Impurity ([2]; pH 8.0 buffer, 20 ± 2 °C/60 ± 5% RH, 7 Days): 0.05%
Total Impurity ([2]; pH 8.0 buffer, 40 ± 2 °C/75 ± 5% RH, 3 Days): 0.42%
Total Impurity ([2]; pH 8.0 buffer, 40 ± 2 °C/75 ± 5% RH, 7 Days): 1.06%
Total Impurity ([2]; pH 8.0 buffer, Initial): 0.00%
Total Impurity ([2]; pH 9.0 buffer, 20 ± 2 °C/60 ± 5% RH, 3 Days): 1.27%
Total Impurity ([2]; pH 9.0 buffer, 20 ± 2 °C/60 ± 5% RH, 7 Days): 1.47%
Total Impurity ([2]; pH 9.0 buffer, 40 ± 2 °C/75 ± 5% RH, 3 Days): 3.90%
Total Impurity ([2]; pH 9.0 buffer, 40 ± 2 °C/75 ± 5% RH, 7 Days): 6.31%
Total Impurity ([2]; pH 9.0 buffer, Initial): 1.02%
Total Impurity ([2]; pH 10.0 buffer, 20 ± 2 °C/60 ± 5% RH, 3 Days): 0.46%
Total Impurity ([2]; pH 10.0 buffer, 20 ± 2 °C/60 ± 5% RH, 7 Days): 0.66%
Total Impurity ([2]; pH 10.0 buffer, 40 ± 2 °C/75 ± 5% RH, 3 Days): 0.30%
Total Impurity ([2]; pH 10.0 buffer, 40 ± 2 °C/75 ± 5% RH, 7 Days): 4.78%
Total Impurity ([2]; pH 10.0 buffer, Initial): 0.15%
Total Impurity ([2]; pH 11.0 buffer, 20 ± 2 °C/60 ± 5% RH, 3 Days): 0.14%
Total Impurity ([2]; pH 11.0 buffer, 20 ± 2 °C/60 ± 5% RH, 7 Days): 0.22%
Total Impurity ([2]; pH 11.0 buffer, 40 ± 2 °C/75 ± 5% RH, 3 Days): 1.99%
Total Impurity ([2]; pH 11.0 buffer, 40 ± 2 °C/75 ± 5% RH, 7 Days): 3.69%
Total Impurity ([2]; pH 11.0 buffer, Initial): 0.00%
Total Impurity ([2]; pH 12.0 buffer, 20 ± 2 °C/60 ± 5% RH, 3 Days): 0.75%
Total Impurity ([2]; pH 12.0 buffer, 20 ± 2 °C/60 ± 5% RH, 7 Days): 1.05%
Total Impurity ([2]; pH 12.0 buffer, 40 ± 2 °C/75 ± 5% RH, 3 Days): 2.62%
Total Impurity ([2]; pH 12.0 buffer, 40 ± 2 °C/75 ± 5% RH, 7 Days): 4.11%
Total Impurity ([2]; pH 12.0 buffer, Initial): 0.00%
amount dissolved in dissolution medium ([3]; 900 mL of dissolution medium): more than 0.33 mg per 1 mL
solubility thermodynamic at 12 h [3, 6]: 400 µg/mL
solubility thermodynamic at 24 h [3, 6]: 400 µg/mL
solubility thermodynamic at 12 h [3, 7]: 370 µg/mL
solubility thermodynamic at 24 h [3, 7]: 370 µg/mL
solubility thermodynamic at 12 h [3, 8]: 370 µg/mL
solubility thermodynamic at 24 h [3, 8]: 370 µg/mL
solubility thermodynamic at 12 h [3, 9]: 320 µg/mL
solubility thermodynamic at 24 h [3, 9]: 320 µg/mL
solubility thermodynamic at 12 h [3, 10]: 330 µg/mL
solubility thermodynamic at 24 h [3, 10]: 330 µg/mL
solubility thermodynamic at 12 h [3, 11]: 320 µg/mL
solubility thermodynamic at 24 h [3, 11]: 320 µg/mL
solubility thermodynamic at 12 h [3, 12]: 350 µg/mL
solubility thermodynamic at 24 h [3, 12]: 350 µg/mL
solubility thermodynamic at 12 h [3, 13]: 340 µg/mL
solubility thermodynamic at 24 h [3, 13]: 340 µg/mL
solubility thermodynamic at 12 h [3, 14]: 340 µg/mL
solubility thermodynamic at 24 h [3, 14]: 340 µg/mL
solubility thermodynamic at 12 h ([3]; buffer solution, pH 11, aqueous buffer): 210 µg/mL
solubility thermodynamic at 12 h ([3]; deionized water, water): 290 µg/mL
solubility thermodynamic at 24 h ([3]; deionized water, water): 290 µg/mL
solubility thermodynamic at 12 h [3, 15]: 340 µg/mL
solubility thermodynamic at 24 h [3, 15]: 340 µg/mL
solubility thermodynamic at 12 h [3, 16]: 350 µg/mL
solubility thermodynamic at 24 h [3, 16]: 350 µg/mL
solubility thermodynamic at 24 h ([3]; pH 11.0 buffer solution, pH 11, aqueous buffer): 210 µg/mL
solubility thermodynamic at 12 h [3, 17]: 240 µg/mL
solubility thermodynamic at 24 h [3, 17]: 240 µg/mL
Total Impurities ([4]; 20 ± 2 °C/60 ± 5% RH, 2 Weeks): 0.10%
Total Impurities ([4]; 20 ± 2 °C/60 ± 5% RH, 4 Weeks): 0.09%
Total Impurities ([4]; 40 ± 2 °C/75 ± 5% RH, 2 Weeks): 0.08%
Total Impurities ([4]; 40 ± 2 °C/75 ± 5% RH, 4 Weeks): 0.12%
Total Impurities ([4]; Initial): 0.09%
BCS [5]: Class 3
